The numbers were not newly measured in publication PMC10552101 (ACS Omega, 2023), which cites them from elsewhere.

Take `CNC1CC(c2ccc(Cl)c(Cl)c2)c2ccccc21` (stereo not shown) [LU-19-005, indatraline]: the onset result was “slow onset”.
